# Legend:
# Assay type in all cases: in vivo
# [1] = tested on: kochia (Kochia scoparia); assay: Test C greenhouse herbicide test, postemergence
# Outline: (§1)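 Visual injury scores (0–100, where 100 means complete control) were assigned 13 to 15 d after postemergence application, by comparison with untreated plants. Treated seedlings stood 2 to 18 cm tall, at the 1- to 4-leaf stage.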
# [2] = tested on: oat, wild (wild oat, Avena fatua); assay: Test C greenhouse herbicide test, postemergence
# Outline: as §1
# [3] = tested on: wheat (winter wheat, Triticum aestivum); assay: Test C greenhouse herbicide test, pre- and postemergence
# Outline: (§2)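 Preemergence: seeds sown in a loam soil–sand blend and sprayed with test chemicals in a non-phytotoxic solvent mixture containing surfactant. Postemergence: plants grown in peat-based medium and treated at 2 to 18 cm (1- to 4-leaf stage). After 13 to 15 d in a greenhouse, injury was visually rated 0–100 against controls.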
# [4] = tested on: waterhemp (common waterhemp, Amaranthus rudis); assay: as above
# Outline: as §2
# [5] = tested on: oilseed rape (Brassica napus); assay: as above
# Outline: as §2
# [6] = tested on: lambsquarters (Chenopodium album); assay: as above
# Outline: as §2
# [7] = tested on: corn (Zea mays); assay: as above
# Outline: as §2
# [8] = tested on: crabgrass, large (large crabgrass, Digitaria sanguinalis); assay: as above
# Outline: as §2
# [9] = tested on: velvetleaf (Abutilon theophrasti); assay: as above
# Outline: as §2
# [10] = tested on: pigweed (Amaranthus retroflexus); assay: as above
# Outline: as §2
# [11] = tested on: nutsedge, yellow (yellow nutsedge, Cyperus esculentus); assay: as above
# Outline: as §2
# [12] = tested on: foxtail, giant (giant foxtail, Setaria faberii); assay: as above
# Outline: as §2
# [13] = tested on: barnyardgrass (Echinochloa crus-galli); assay: as above; details: Postemergence
# Outline: as §2
# [14] = tested on: morningglory (Ipomoea coccinea); assay: as above
# Outline: as §2
# [15] = tested on: blackgrass (Alopecurus myosuroides); assay: as above
# Outline: as §2
# [16] = tested on: johnsongrass (Sorghum halepense); assay: as above
# Outline: as §2
# [17] = Postemergence, 31 g ai/ha, scale 0 to 100 (0 no effect, 100 complete control)
# [18] = Postemergence, 62 g ai/ha, 0 to 100 scale (0 no effect, 100 complete control)
# [19] = Postemergence, 250 g ai/ha, scale 0 to 100, 0 no effect, 100 complete control, 13 to 15 d
# [20] = postemergence, 125 g ai/ha, scale 0 to 100, 0 no effect, 100 complete control
smiles,measurement,setting,value
Cc1nn(C)c(=O)c(-c2cccc3ccc(C#N)cc23)c1O [Compound 127],"Plant response rating, Kochia",[1]; [17],40
same,Kochia plant response rating,[1]; [18],85
same,"Plant response rating, Kochia",[1]; [19],90
same,Kochia plant response rating,[1]; [20],95
same,"Plant response rating, Oat, Wild",[2]; [17],10
same,"Oat, Wild plant response rating",[2]; [18],20
same,"Plant response rating, Oat, Wild",[2]; [19],60
same,"Oat, Wild plant response rating",[2]; [20],55
same,"Plant response rating, Wheat",[3]; [17],0
same,Wheat plant response rating,[3]; [18],5
same,"Plant response rating, Wheat",[3]; [19],30
same,Wheat plant response rating,[3]; [20],5
same,"Plant response rating, Waterhemp",[4]; [17],70
same,Waterhemp plant response rating,[4]; [18],85
same,"Plant response rating, Waterhemp",[4]; [19],95
same,Waterhemp plant response rating,[4]; [20],85
same,"Plant response rating, Oilseed Rape",[5]; [17],0
same,Oilseed Rape plant response rating,[5]; [18],0
same,"Plant response rating, Oilseed Rape",[5]; [19],100
same,Oilseed Rape plant response rating,[5]; [20],25
same,"Plant response rating, Lambsquarters",[6]; [17],70
same,Lambsquarters plant response rating,[6]; [18],80
same,"Plant response rating, Lambsquarters",[6]; [19],98
same,Lambsquarters plant response rating,[6]; [20],85
same,"Plant response rating, Corn",[7]; [17],0
same,Corn plant response rating,[7]; [18],0
same,"Plant response rating, Corn",[7]; [19],10
same,Corn plant response rating,[7]; [20],5
same,"Plant response rating, Crabgrass, Large",[8]; [17],0
same,"Crabgrass, Large plant response rating",[8]; [18],5
same,"Plant response rating, Crabgrass, Large",[8]; [19],25
same,"Crabgrass, Large plant response rating",[8]; [20],10
same,"Plant response rating, Velvetleaf",[9]; [17],20
same,Velvetleaf plant response rating,[9]; [18],30
same,"Plant response rating, Velvetleaf",[9]; [19],55
same,Velvetleaf plant response rating,[9]; [20],25
same,"Plant response rating, Pigweed",[10]; [17],70
same,Pigweed plant response rating,[10]; [18],85
same,"Plant response rating, Pigweed",[10]; [19],95
same,Pigweed plant response rating,[10]; [20],90
same,"Plant response rating, Nutsedge, Yellow",[11]; [17],10
same,"Nutsedge, Yellow plant response rating",[11]; [18],35
same,"Plant response rating, Nutsedge, Yellow",[11]; [19],70
same,"Nutsedge, Yellow plant response rating",[11]; [20],60
same,"Plant response rating, Foxtail, Giant",[12]; [17],5
same,"Foxtail, Giant plant response rating",[12]; [18],5
same,"Plant response rating, Foxtail, Giant",[12]; [19],40
same,"Foxtail, Giant plant response rating",[12]; [20],25
same,"Plant response rating, Barnyardgrass","[13]; 31 g ai/ha, scale 0 to 100 (0 no effect, 100 complete control)",10
same,Barnyardgrass plant response rating,"[13]; 62 g ai/ha, 0 to 100 scale (0 no effect, 100 complete control)",20
same,"Plant response rating, Barnyardgrass","[13]; 125 g ai/ha, scale 0 to 100, 0 is no effect, 100 is complete control",25
same,"Plant response rating, Barnyardgrass","[13]; 250 g ai/ha, scale 0 to 100, 0 no effect, 100 complete control, 13 to 15 d",25
same,"Plant response rating, Morningglory",[14]; [17],65
same,Morningglory plant response rating,[14]; [18],75
same,"Plant response rating, Morningglory",[14]; [19],98
same,Morningglory plant response rating,[14]; [20],85
same,"Plant response rating, Blackgrass",[15]; [17],0
same,Blackgrass plant response rating,[15]; [18],5
same,"Plant response rating, Blackgrass",[15]; [19],35
same,Blackgrass plant response rating,[15]; [20],5
same,"Plant response rating, Johnsongrass",[16]; [17],5
same,Johnsongrass plant response rating,[16]; [18],5
same,"Plant response rating, Johnsongrass",[16]; [19],15
same,Johnsongrass plant response rating,[16]; [20],10

# — US10597388B2, “Pyridazinone herbicides” (FMC CORPORATION, priority 2014, dated 2020)
